Measurements reported in patent publication US9296693B2, “Acyl piperidine inhibitors of soluble epoxide hydrolase” (The Regents of the University of California, priority 2010, dated 2016).
“And” between values parts separate entries of the source, which are not always exact repeats. Equal entries are not always repeated.

Assays:
Human sEH = Human sEH (Homo sapiens (Human), UniProt P34913); test: fluorescent based IC50 assay (CMNPC substrate), recombinant human sEH; conditions: read-out: IC50 (nM) Human; homogenous recombinant human sEH 1 nM, CMNPC 5 μM, pH 7.0, 30° C., average of three replicates;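 note: enzyme preincubated with inhibitor for 5 min before adding substrate, in 25 mM Bis-Tris/HCl buffer supplemented with 0.1 mg/mL BSA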
murine sEH = murine sEH (Mus musculus (Mouse), UniProt P34914); test: fluorescent based IC50 assay (CMNPC substrate), recombinant murine sEH; type: biochemical; conditions: homogenous recombinant murine sEH 1 nM, CMNPC 5 μM, pH 7.0, 30° C., average of three replicates
[1] = Log P determination by HPLC method (OECD guideline 117); type: physicochemical; conditions: octanol/water; read-out: log P (±0.5)
Description: Log P and purity analyses were performed using a Hewlett Packard 1100 HPLC equipped with a diode array detector. A Phenomenex Luna 150 mm×4.6 mm, 5 μm, C-18 column was used for all HPLC analyses.

[2] = log P by shake flask method (OECD guideline 107); type: physicochemical
[3] = Pharmacokinetic screening of selected haloalkyl-phenyl ureas, blood profiles; type: in vivo; conditions: whole blood

murine sEH, sequence (P34914 whole entry): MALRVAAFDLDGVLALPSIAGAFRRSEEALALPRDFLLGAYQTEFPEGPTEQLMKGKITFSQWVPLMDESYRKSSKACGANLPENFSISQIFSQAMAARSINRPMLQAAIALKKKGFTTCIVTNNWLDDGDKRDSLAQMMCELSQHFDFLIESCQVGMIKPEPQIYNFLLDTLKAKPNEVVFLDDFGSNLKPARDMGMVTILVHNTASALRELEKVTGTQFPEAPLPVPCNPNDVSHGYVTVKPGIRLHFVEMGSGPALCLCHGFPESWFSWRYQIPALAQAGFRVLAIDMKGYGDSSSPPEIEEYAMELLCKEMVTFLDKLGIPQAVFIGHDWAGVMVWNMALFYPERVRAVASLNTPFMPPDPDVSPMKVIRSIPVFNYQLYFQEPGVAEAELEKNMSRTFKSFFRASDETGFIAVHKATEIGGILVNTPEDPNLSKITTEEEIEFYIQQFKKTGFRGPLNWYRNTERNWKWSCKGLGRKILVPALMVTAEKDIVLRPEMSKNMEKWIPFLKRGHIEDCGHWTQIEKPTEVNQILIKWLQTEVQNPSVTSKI
Human sEH, sequence (P34913 whole entry): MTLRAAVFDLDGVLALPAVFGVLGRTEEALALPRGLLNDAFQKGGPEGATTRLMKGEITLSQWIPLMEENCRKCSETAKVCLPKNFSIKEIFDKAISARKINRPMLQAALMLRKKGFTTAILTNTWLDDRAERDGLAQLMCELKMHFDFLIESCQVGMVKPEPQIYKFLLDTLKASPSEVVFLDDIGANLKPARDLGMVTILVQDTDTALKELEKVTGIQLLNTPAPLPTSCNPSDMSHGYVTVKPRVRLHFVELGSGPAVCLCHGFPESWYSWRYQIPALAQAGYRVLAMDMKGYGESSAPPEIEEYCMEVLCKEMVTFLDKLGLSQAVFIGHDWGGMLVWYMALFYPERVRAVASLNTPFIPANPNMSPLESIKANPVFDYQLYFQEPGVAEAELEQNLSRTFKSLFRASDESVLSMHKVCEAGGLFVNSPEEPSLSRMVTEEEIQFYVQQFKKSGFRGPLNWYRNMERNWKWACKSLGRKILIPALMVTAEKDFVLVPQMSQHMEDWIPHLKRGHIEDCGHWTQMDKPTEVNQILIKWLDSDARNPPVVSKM

Compound	IC50 (Human sEH)	IC50 (murine sEH)	chromatographic logP [1]	log P [2]	AUC [3]	Cmax [3]	Tmax [3]	half-life [3]
CCC(=O)N1CCC(NC(=O)Nc2cccnc2)CC1 [Compound 9, 1-(1-Propionylpiperidin-4-yl)-3-(pyridin-3-yl)urea]	3800 nM	> 5000 nM and 12000 nM	< 0					
CCC(=O)N1CCC(NC(=O)Nc2ccc(F)cc2)CC1 [Compound 24, 1-(4-Fluorophenyl)-3-(1-propionylpiperidin-4-yl)urea]	79 nM	110 nM		1.9				
O=C(Nc1ccc(OC(F)(F)F)cc1)NC1CCN(C(=O)c2cc(O)c(O)c(O)c2)CC1 [Compound 54, 1-(4-(Trifluoromethoxy)phenyl)-3-(1-(3,4,5-trihydroxybenzoyl)piperidin-4-yl)urea]	0.5 nM	2.7 nM		2.3				
CCCCS(=O)(=O)N1CCC(NC(=O)Nc2ccc(C(F)(F)F)cc2)CC1 [Compound 69, 1-(1-(butylsulfonyl)piperidin-4-yl)-3-(4-(trifluoromethyl)phenyl)urea]					15.5 µM·h	1.7 µM	1 h	4.5 h
O=C(Nc1ccc(C(F)(F)F)cc1)NC1CCN(S(=O)(=O)C2CC2)CC1 [Compound 70, 1-(1-(cyclopropylsulfonyl)piperidin-4-yl)-3-(4-(trifluoromethyl)phenyl)urea]					167 µM·h	10.9 µM	4 h	11.9 h
